Experimental data published in patent publication US20050209157A1, “Short bioactive peptides and methods for their use” (priority 2001, published 2005).
Values after ≈ are worked out from the molar mass of the structure shown. No end group written: not given here.

How the values were obtained:
[1] = test system: WI38; conditions: MTT, 24 hours with peptide; normal fibroblast line
[2] = in vitro; type: cell-based, human; conditions: human, human red blood cells, pH 7, hemolytic assay, concentration at 50% hemolysis, 1 hour at 37° C.; read-out: LD50
Description: This hemolytic assay is based upon that presented in Journal of Peptide Research 53: 82-90 (1999). […] All procedures were performed according to safety protocols pertaining to the handling and disposal of human body fluids.
Red blood cells (RBCs) were washed three times with PBS (35 mM phosphate buffer 0.15 M NaCl, pH 7.0). RBCs suspended in PBS (0.4% (v/v); about 10 ml per 15 peptides) were prepared. Suspensions (100 μl) were aliquoted to each sample and control tube. Serially diluted peptide solutions (100 μl) were pipetted into the sample tubes. Negative control tubes contained 100 μl PBS; positive control tubes contained 100 μl 1% Triton-X100 detergent. All tubes were incubated for 1 hour at 37° C. The tubes were removed from the incubator and centrifuged at 1000 g for 5 minutes. Supernatant (100 μl) was pipetted to a 96-well polyvinyl chloride plate. The absorbance at 414 nm (A414) was measured, and used to calculate the percent hemolysis according to the following formula. [formula]

[3] = test system: PC3; experiment: Anti-cancer assay, MTT, LD50; type: cell-based; conditions: 24 hours with peptide, prostate adenocarcinoma
Description: (§1) Numbers are LD50 values (μg/mL).

[4] = test system: SW480; experiment: Anti-cancer assay, MTT, LD50; type: cell-based; conditions: SW480 colon adenocarcinoma line, 24 hours with peptide
Description: as §1

[5] = test system: MCF7; experiment: Anti-cancer assay, MTT, LD50; type: cell-based; conditions: MCF7 breast adenocarcinoma line, MTT, 24 hours with peptide
Description: as §1

[6] = test system: BMKC; experiment: Anti-cancer assay, MTT, LD50; type: cell-based; conditions: BMKC cloned melanoma line, 24 hours with peptide
Description: as §1

[7] = test system: H1299; experiment: Anti-cancer assay, MTT, LD50; type: cell-based; conditions: 24 hours with peptide, lung large cell carcinoma
Description: as §1

[8] = test system: HeLaS3; experiment: Anti-cancer assay, MTT, LD50; type: cell-based; conditions: 24 hours with peptide, cervical carcinoma
Description: as §1

[9] = test system: yeast (Saccharomyces cerevisiae); experiment: Antimicrobial assay I, yeast assay in RPMI 1640; type: cell-based; conditions: RPMI 1640 media
Description: (§2) The data for the following antimicrobial assay of the peptides have been obtained by making OD measurements in in vitro cell culture experiments with and without added peptide. The protocol used is as follows.
(§3) Absorbance was read at 620 nm after shaking to resuspend cells.
The yeast assay was performed in RPMI 1640 media (pH 7.0 at 25° C.).
(§4) Staph6538 is Staphylococcus aureus ATCC accession number 6538; paerug9027 is Pseudomonas aeruginosa ATCC accession number 9027, yeast is Saccharomyces cerevisiae.

[10] = test system: Pseudomonas aeruginosa ATCC 9027; experiment: Antimicrobial assay I, MIC by OD measurement; type: cell-based; conditions: 37° C. for 24 hours, absorbance 620 nm
Description: as §2
(§5) Cell lines included Staphylococcus aureus ATCC 6538 or 25923, Pseudomonas aeruginosa ATCC 9027 or 27853. Medium used were Antibiotic Medium 3 (Difco), Antibiotic Medium 2 (Difco), and 0.85% saline. Controls used were physiological saline, and gentamycin at 50, 25, 10, 5, 1, and 0.1 ppm.
as §3, §4

[11] = test system: Staphylococcus aureus ATCC 6538; experiment: Antimicrobial assay I, MIC by OD measurement; type: cell-based; conditions: 37° C. for 24 hours, absorbance 620 nm
Description: as §2, §5, §3, §4

[12] = in vitro; conditions: human, WI38 normal lung fibroblast cells, LD50 WI38, WI38 normal lung fibroblast line, MTT, 24 hours with peptide

VAKLLAKLAKKVL-NH2 [P154]
WI38 LD50 [1]: 600 µg/mL
HC50 at 1 h [2]: 450 µg/mL
PC3 LD50 [3]: 640 µg/mL
LD50 SW480 [4]: 750 µg/mL
LD50 MCF7 [5]: 315 µg/mL
LD50 BMKC [6]: 330 µg/mL
H1299 LD50 [7]: 400 µg/mL
HeLaS3 LD50 [8]: > (> indicates greater than 1000)
yeast (MIC or MFC) [9]: 50 mg/L
paerug9027 (MIC) [10]: 100 mg/L
staph6538 (MIC) [11]: 100 mg/L
CC50 at 24 h [12]: 600 mg/L

VAKLLAKLAKKLL-NH2 [P48]
WI38 LD50 [1]: 41 µg/mL
HC50 at 1 h [2]: 200 µg/mL
PC3 LD50 [3]: 32 µg/mL
LD50 SW480 [4]: 47 µg/mL
LD50 MCF7 [5]: 23 µg/mL
LD50 BMKC [6]: 43 µg/mL
H1299 LD50 [7]: 17 µg/mL
HeLaS3 LD50 [8]: 44 µg/mL
yeast (MIC or MFC) [9]: 25 mg/L
paerug9027 (MIC) [10]: 5 mg/L
staph6538 (MIC) [11]: 5 mg/L
CC50 at 24 h [12]: 41 mg/L

FAKKLAKKLKKLAKKLAKKWKL-NH2 [P70]
WI38 LD50 [1]: 34 µg/mL
HC50 at 1 h [2]: 80 µg/mL
PC3 LD50 [3]: 82 µg/mL
LD50 SW480 [4]: 11 µg/mL
LD50 MCF7 [5]: 44 µg/mL
LD50 BMKC [6]: 94 µg/mL
H1299 LD50 [7]: 63 µg/mL
HeLaS3 LD50 [8]: 28 µg/mL
yeast (MIC or MFC) [9]: 100 mg/L
paerug9027 (MIC) [10]: > (> indicates greater than 200 μg/mL)
staph6538 (MIC) [11]: 10 mg/L
CC50 at 24 h [12]: 34 mg/L

LKKLAKLALAF-NH2 [P179]
WI38 LD50 [1]: 540 µg/mL
HC50 at 1 h [2]: 850 µg/mL
PC3 LD50 [3]: > (> indicates greater than 1000)
LD50 SW480 [4]: > (> indicates greater than 1000)
LD50 MCF7 [5]: 555 µg/mL
LD50 BMKC [6]: 920 µg/mL
H1299 LD50 [7]: > (> indicates greater than 1000)
HeLaS3 LD50 [8]: > (> indicates greater than 1000)
yeast (MIC or MFC) [9]: 100 mg/L
paerug9027 (MIC) [10]: 50 mg/L
staph6538 (MIC) [11]: 50 mg/L
CC50 at 24 h [12]: 540 mg/L

FALLKALKKAL-NH2 [P171, FALLKALKKAL-NH2]
WI38 LD50 [1]: 615 µg/mL
HC50 at 1 h [2]: 550 µg/mL
PC3 LD50 [3]: 600 µg/mL
LD50 SW480 [4]: 770 µg/mL
LD50 MCF7 [5]: 305 µg/mL
LD50 BMKC [6]: 600 µg/mL
H1299 LD50 [7]: 540 µg/mL
HeLaS3 LD50 [8]: 820 µg/mL
yeast (MIC or MFC) [9]: 100 mg/L
paerug9027 (MIC) [10]: 50 mg/L
staph6538 (MIC) [11]: 25 mg/L
CC50 at 24 h [12]: 615 mg/L

FKRLAKIKVLRLAKIKR-NH2 [P147]
WI38 LD50 [1]: 83 µg/mL
HC50 at 1 h [2]: 300 µg/mL
PC3 LD50 [3]: 340 µg/mL
LD50 SW480 [4]: 185 µg/mL
LD50 MCF7 [5]: 106 µg/mL
LD50 BMKC [6]: 110 µg/mL
H1299 LD50 [7]: 93 µg/mL
HeLaS3 LD50 [8]: > (> indicates greater than 1000)
yeast (MIC or MFC) [9]: 200 mg/L
paerug9027 (MIC) [10]: 5 mg/L
staph6538 (MIC) [11]: 5 mg/L
CC50 at 24 h [12]: 83 mg/L

FAKLLAKLAK-NH2 [P123]
WI38 LD50 [1]: 600 µg/mL
HC50 at 1 h [2]: 1000 µg/mL
PC3 LD50 [3]: > (> indicates greater than 1000)
LD50 SW480 [4]: > (> indicates greater than 1000)
LD50 MCF7 [5]: 615 µg/mL
LD50 BMKC [6]: 635 µg/mL
H1299 LD50 [7]: > (> indicates greater than 1000)
HeLaS3 LD50 [8]: 940 µg/mL
yeast (MIC or MFC) [9]: 100 mg/L
paerug9027 (MIC) [10]: 200 mg/L
staph6538 (MIC) [11]: 50 mg/L
CC50 at 24 h [12]: 600 mg/L

FAKKLAKLAKKLLAL-NH2 [P38, FAKKLAKLAKKLLAL-NH2]
WI38 LD50 [1]: 12 µg/mL
HC50 at 1 h [2]: 350 µg/mL
PC3 LD50 [3]: 10 µg/mL
LD50 SW480 [4]: 13 µg/mL
LD50 MCF7 [5]: 17 µg/mL
LD50 BMKC [6]: 21 µg/mL
H1299 LD50 [7]: 33 µg/mL
HeLaS3 LD50 [8]: 35 µg/mL
yeast (MIC or MFC) [9]: 50 mg/L
paerug9027 (MIC) [10]: 50 mg/L
staph6538 (MIC) [11]: 5 mg/L
CC50 at 24 h [12]: 12 mg/L

KWKLFKKALKKLKKALKKAL-NH2 [P104]
WI38 LD50 [1]: 24 µg/mL
HC50 at 1 h [2]: 70 µg/mL
PC3 LD50 [3]: 18 µg/mL
LD50 SW480 [4]: 54 µg/mL
LD50 MCF7 [5]: 11 µg/mL
LD50 BMKC [6]: 100 µg/mL
H1299 LD50 [7]: 52 µg/mL
HeLaS3 LD50 [8]: 130 µg/mL
yeast (MIC or MFC) [9]: 200 mg/L
paerug9027 (MIC) [10]: 10 mg/L
staph6538 (MIC) [11]: 10 mg/L
CC50 at 24 h [12]: 24 mg/L

FALALKALKKAL-NH2 [P144, FALALKALKKAL-NH2]
WI38 LD50 [1]: 750 µg/mL
HC50 at 1 h [2]: 600 µg/mL
PC3 LD50 [3]: 350 µg/mL
LD50 SW480 [4]: 285 µg/mL
LD50 MCF7 [5]: 150 µg/mL
LD50 BMKC [6]: 250 µg/mL
H1299 LD50 [7]: 225 µg/mL
HeLaS3 LD50 [8]: 275 µg/mL
yeast (MIC or MFC) [9]: 50 mg/L
paerug9027 (MIC) [10]: 50 mg/L
staph6538 (MIC) [11]: 5 mg/L
CC50 at 24 h [12]: 750 mg/L

CC(C)C[C@H](NC(=O)[C@H](C)NC(=O)[C@H](CCCCN)NC(=O)[C@H](CC(C)C)NC(=O)[C@H](C)NC(=O)[C@H](CC(C)C)NC(=O)[C@H](C)NC(=O)[C@H](CCCCN)NC(=O)[C@H](CC(C)C)NC(=O)[C@H](C)NC(=O)[C@H](CC(C)C)NC(=O)[C@H](C)NC(=O)[C@H](CC(C)C)NC(=O)[C@H](CCCCN)NC(=O)[C@H](C)NC(=O)[C@H](CC(C)C)NC(=O)[C@H](CCCCN)NC(=O)[C@H](CCCCN)NC(=O)[C@H](C)NC(=O)[C@H](CC(C)C)NC(=O)[C@H](CCCCN)NC(=O)[C@H](CCCCN)NC(=O)[C@H](CC(C)C)NC(=O)[C@H](CCCCN)NC(=O)[C@H](CCCCN)NC(=O)[C@H](C)NC(=O)[C@H](CC(C)C)NC(=O)[C@H](CCCCN)NC(=O)[C@H](CCCCN)NC(=O)[C@H](C)NC(=O)[C@@H](N)Cc1ccccc1)C(N)=O [P98, reference compound]
WI38 LD50 [1]: 47 µg/mL
HC50 at 1 h [2]: 60 µg/mL
PC3 LD50 [3]: 52 µg/mL
LD50 SW480 [4]: 125 µg/mL
LD50 MCF7 [5]: 96 µg/mL
LD50 BMKC [6]: 94 µg/mL
H1299 LD50 [7]: 53 µg/mL
HeLaS3 LD50 [8]: 175 µg/mL
yeast (MIC or MFC) [9]: > (> indicates greater than 200 μg/mL)
paerug9027 (MIC) [10]: > (> indicates greater than 200 μg/mL)
staph6538 (MIC) [11]: > (> indicates greater than 200 μg/mL)
CC50 at 24 h [12]: 47 mg/L (≈ 14 µM)
